The target in series [1] is T1, ASK1 (Homo sapiens, UniProt Q99683).
T1 sequence (Q99683 1-1374): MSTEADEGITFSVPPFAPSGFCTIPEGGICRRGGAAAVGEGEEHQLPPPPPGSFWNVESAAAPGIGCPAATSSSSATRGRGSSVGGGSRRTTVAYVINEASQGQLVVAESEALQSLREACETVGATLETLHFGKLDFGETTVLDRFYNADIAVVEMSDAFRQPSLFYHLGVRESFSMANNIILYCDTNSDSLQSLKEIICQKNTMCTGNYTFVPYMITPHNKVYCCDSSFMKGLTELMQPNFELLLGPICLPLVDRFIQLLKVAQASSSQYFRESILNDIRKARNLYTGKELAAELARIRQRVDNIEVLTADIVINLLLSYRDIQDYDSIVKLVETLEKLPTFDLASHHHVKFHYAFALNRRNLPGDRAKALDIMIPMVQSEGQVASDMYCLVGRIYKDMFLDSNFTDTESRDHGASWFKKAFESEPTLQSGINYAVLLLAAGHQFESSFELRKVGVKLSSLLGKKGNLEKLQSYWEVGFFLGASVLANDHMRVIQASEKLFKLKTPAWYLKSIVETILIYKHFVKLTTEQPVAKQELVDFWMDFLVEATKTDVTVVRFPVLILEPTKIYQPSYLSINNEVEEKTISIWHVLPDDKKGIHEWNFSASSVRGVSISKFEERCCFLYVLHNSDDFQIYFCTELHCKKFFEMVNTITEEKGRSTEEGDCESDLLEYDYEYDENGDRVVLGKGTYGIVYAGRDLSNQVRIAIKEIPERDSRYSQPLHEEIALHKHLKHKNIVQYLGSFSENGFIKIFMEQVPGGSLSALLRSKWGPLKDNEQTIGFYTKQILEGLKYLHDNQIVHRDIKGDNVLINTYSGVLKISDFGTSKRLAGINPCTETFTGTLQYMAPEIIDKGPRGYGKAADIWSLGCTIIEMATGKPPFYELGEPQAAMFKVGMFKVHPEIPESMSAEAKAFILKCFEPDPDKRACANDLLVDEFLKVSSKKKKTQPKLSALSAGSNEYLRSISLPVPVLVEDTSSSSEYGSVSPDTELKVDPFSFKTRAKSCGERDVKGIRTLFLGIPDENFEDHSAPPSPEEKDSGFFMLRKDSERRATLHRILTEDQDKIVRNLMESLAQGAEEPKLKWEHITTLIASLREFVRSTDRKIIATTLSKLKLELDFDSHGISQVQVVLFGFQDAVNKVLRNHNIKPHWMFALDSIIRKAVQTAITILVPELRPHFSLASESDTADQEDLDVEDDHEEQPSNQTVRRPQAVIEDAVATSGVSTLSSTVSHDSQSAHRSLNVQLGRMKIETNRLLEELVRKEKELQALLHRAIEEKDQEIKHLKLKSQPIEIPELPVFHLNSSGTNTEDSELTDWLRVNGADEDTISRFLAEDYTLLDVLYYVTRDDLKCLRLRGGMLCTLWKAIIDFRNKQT
Put plainly: ASK1 Alphascreen biochemical assay. (Alpha assays give light when donor and acceptor beads are brought close together.)

The test system of another series is INS-1e cell line. Put plainly: TNFα-induced phosphorylation of endogenous MKK6 at Ser207, immunoblot. The following applies: rat INS-1e cells. Type of series: cell-based. (In general: In western blotting, separated proteins are transferred to a membrane and probed.)
Series [2] has as its target T1, ASK1. Kind of series: Enzyme kinetic study, Lineweaver-Burk plot at six ATP concentrations. Type of series: biochemical. Conditions: with or without compound.
The target in a further series is CYP3A4 (Homo sapiens, UniProt P08684). Kind of series: Cytochrome P450 inhibition assay 3A4. Type of series: in vitro ADME.
A further series addresses CYP2C9 (Homo sapiens, UniProt P11712). Put plainly: Cytochrome P450 inhibition assay 2C9. Type of series: in vitro ADME.

Entries after “also recorded” stand apart in the source; their conditions may differ. Some results are limits rather than exact numbers.

The results in this text go back to PMC5999544 (Bioorganic & medicinal chemistry letters, 2017).

Chain of CYP3A4 (P08684 whole entry): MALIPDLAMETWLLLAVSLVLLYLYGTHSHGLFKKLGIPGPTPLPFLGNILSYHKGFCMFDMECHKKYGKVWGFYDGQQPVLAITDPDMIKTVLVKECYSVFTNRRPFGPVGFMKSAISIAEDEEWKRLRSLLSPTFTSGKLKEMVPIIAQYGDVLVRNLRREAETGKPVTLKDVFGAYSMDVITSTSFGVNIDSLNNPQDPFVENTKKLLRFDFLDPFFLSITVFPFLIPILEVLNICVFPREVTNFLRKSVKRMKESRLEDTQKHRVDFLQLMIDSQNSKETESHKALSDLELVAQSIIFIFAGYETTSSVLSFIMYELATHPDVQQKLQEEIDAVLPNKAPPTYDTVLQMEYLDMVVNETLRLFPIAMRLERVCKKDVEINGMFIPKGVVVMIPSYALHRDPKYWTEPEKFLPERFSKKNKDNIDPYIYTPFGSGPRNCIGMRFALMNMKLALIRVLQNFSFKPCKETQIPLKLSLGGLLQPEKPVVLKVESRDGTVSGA
Chain of CYP2C9 (P11712 whole entry): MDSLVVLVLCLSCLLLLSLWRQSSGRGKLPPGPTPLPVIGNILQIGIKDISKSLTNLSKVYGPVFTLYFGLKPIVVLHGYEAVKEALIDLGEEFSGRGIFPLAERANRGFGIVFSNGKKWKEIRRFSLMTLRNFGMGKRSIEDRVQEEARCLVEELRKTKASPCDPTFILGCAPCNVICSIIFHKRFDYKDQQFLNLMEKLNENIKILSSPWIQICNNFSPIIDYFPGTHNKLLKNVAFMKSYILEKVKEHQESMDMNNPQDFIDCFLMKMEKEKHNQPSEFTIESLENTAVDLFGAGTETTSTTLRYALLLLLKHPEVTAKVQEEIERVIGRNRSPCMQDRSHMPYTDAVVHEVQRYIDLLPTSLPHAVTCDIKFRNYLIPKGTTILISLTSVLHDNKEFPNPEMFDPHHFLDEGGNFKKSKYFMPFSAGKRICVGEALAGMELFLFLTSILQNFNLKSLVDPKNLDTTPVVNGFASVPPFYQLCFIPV

In the case of `CN(C)c1cccc(Nc2nccc(NCCOc3ccccc3)n2)c1` [Compound 3], the “fold less active as an ASK1 inhibitor compared to 1” value at ASK1 [1] (3 versus 1) is reported as “approximately 250 fold”.
What is called inhibition is the change of the read-out against control, counted positive when it falls. `CC(=O)Nc1cccc(Nc2ncc3ccccc3n2)c1` [Compound 12]: the “TNFα-induced MKK6 ser207 phosphorylation” value in the series on INS-1e cell line is reported as “protects against TNFα-induced MKK6^ser207 phosphorylation; also recorded: reduction of p-MKK6^ser207”. In addition, the “mode of ASK1 inhibition” value on ASK1 [2] is recorded as “ATP competitive”. The inhibition at 10 µM on CYP3A4 and against CYP2C9 was less than 20% in each case. The “ASK1 inhibitory activity (in words)” value on ASK1 [1] was “submicromolar inhibitory activities against ASK1”. Besides, at ASK1 [1] (12 versus 9), the “fold improvement in potency in comparison to quinazoline 9” value is more than 10 fold.
Regarding `CC(=O)Nc1cccc(Nc2ncc3cc(-c4cn[nH]c4)ccc3n2)c1` [Compound 23], the inhibition at 10 µM against CYP3A4 and against CYP2C9 was more than 85% each time. For the same compound, at ASK1 [1], the “ASK1 inhibitory activity (in words)” value is “submicromolar inhibitory activities against ASK1”.
As for `CC(C)(C)C(=O)N(c1ccccc1)c1cccc(Nc2ncc3cc(-c4cn[nH]c4)ccc3n2)c1` [Compound 28], the “ASK1 inhibitory activity (in words)” value at ASK1 [1] is on record as “did not show improvement in ASK1 activity”.
Turning to `Cn1cc(-c2ccc3nc(Nc4cccc(N(C(=O)C(C)(C)C)c5ccccc5)c4)ncc3c2)cn1` [Compound 29], on ASK1 [1], the “ASK1 inhibitory activity (in words)” value is “did not show improvement in ASK1 activity”.
